Results: patent US20250144049A1, “METHODS, COMPOSITIONS, AND USES RELATED TO THE TREATMENT AND PREVENTION OF LEIGH SYNDROME” (Stealth BioTherapeutics Inc., priority 2023, published 2025)

Assays:
[1] = Pharmacokinetics of Compound 3 after repeated (5 days) subcutaneous dosing; assay type: in vivo
Description: The volume of each dose delivered (mL/kg) was based on each individual animal's body weight. • This was a multiple dose terminal study dosed once per day over 5 days. Rats were taken down following their 5th and final dose. • Doses were administered in accordance with test facility standard operating procedures.
• Terminal blood samples were collected via cardiac puncture following inhalation anesthesia in accordance with test facility standard operating procedures. • Blood samples were collected into tubes with appropriate anticoagulant. Tubes were stored on wet ice until processed to plasma by centrifugation (3500 rpm at 5° C. for 10 minutes) within 20 minutes of collection. Sample aliquots of 100 μL were transferred into individual uniquely labeled matrix tubes and stored at nominal −80° C. until transferred to analytical chemistry for analysis. • Immediately following each terminal blood collection for all groups, animals were sacrificed and perfused with cold PBS. The following tissues were collected: heart and brain, in accordance with Table 4. • Plasma and tissue samples were processed for analysis by LC/MS/MS to determine the amounts/concentrations reported in the Figures.

[2] = Compound 4 pharmacokinetics and tissue exposure after five daily subcutaneous doses; assay type: in vivo, C57BL/6 mice
Description: Study design details: • Animals were allowed to acclimate to the test facility for at least two days prior to the beginning of the study. • Study animals were male C57BL/6 mice weighing approximately 18-25 grams each. • Fasting was not required for the study. • Body weights were recorded prior to dose administration. The volume of each dose delivered (mL/kg) was based on each individual animal's body weight. • This was a multiple dose serial PK dosed subcutaneously once daily over 5 days. Compound 4 was administered to two groups: Group 1 at 60 mg/kg and Group 2 at 180 mg/kg (6 and 18 mg/mL, 15% Kolliphor ELP in PBS, 10 mL/kg; N=3/group). Serial PK timepoints were collected following the 5th and final dose.
Sample collection details: • Serial blood samples were collected via tail vein snip. • Blood samples were collected into tubes with anticoagulant. Tubes were stored on wet ice until processed to plasma by centrifugation (3500 rpm at 5° C. for 10 minutes) within 20 minutes of collection. Sample aliquots of 20 μL were transferred into individual uniquely labeled matrix tubes and stored at nominal −80° C. until transferred to analytical chemistry for analysis. • Immediately following each terminal blood collection for all groups, animals were sacrificed and perfused with cold PBS. Heart and brain tissues were collected. • Perfusion methodology: The chest was opened lengthwise using scissors to expose the thoracic organs. A scalpel was used to cut a small hole into the left ventricle just large enough to insert a cannula tip. The cannula was attached to an appropriately sized tubing and syringe prefilled with cold PBS and primed to remove any air. The tip of the cannula was inserted into the left ventricle and directed into the ascending aorta. Hemostats were used to help keep the cannula in place during perfusion. A second hole was made in the right atrium to allow for the escape of fluid during the return circulation. The syringe attached to the cannula was manually pushed or placed into a pump programmed to infuse at 10 mL/min. Animals were perfused for a minimum of 3 minutes or more if needed (until the exiting fluid was clear).
• N=3/group; • Collections relative to the final dose: • Plasma: 60 mg/kg at 2 and 24 hr, 180 mg/kg at predose, 2, 8, and 24 hr • Heart and Brain: 24 hr (terminal, PBS-perfused); • RGA 2 bioanalysis.
• N=3/timepoint; • Collections relative to the final dose: • Plasma: 0.5, 2, 8, and 24 hr (terminal) • Heart and Brain: 0.5, 2, 8, and 24 hr (terminal, PBS-perfused) • RGA 2 bioanalysis.

[3] = system: Ndufs4-KO mouse model of Leigh syndrome; test: Biomarker evaluation study in Ndufs4-KO mouse model of Leigh syndrome; assay type: in vivo; conditions: Ndufs4-KO mice
Description: Study design. A biomarker evaluation study was performed to test Compound 4 in a mouse model of Leigh syndrome (B6.129S4-Ndufs4^tm1.1Rpa/J; JAX Stock #027058). All studies were performed under the approved IACUC protocol at Jackson Laboratories Bar Harbor ME. Three groups of mice were included in this study: (1) wild-type (WT) C57BL/6J mice (n=8), each receiving 20 mg/kg Compound 4 subcutaneously once per day starting at postnatal age 21 days (P21); (2) Ndufs4-KO mice (homozygous knock outs (“HOM”)) (“HOM Veh”) (n=8), each receiving vehicle (5% Kolliphor-ELP in 1×PBS at a dosage of 10 mL/kg/day) subcutaneously once per day starting at P21; and (3) Ndufs4-KO mice (“HOM Comp. 4, 20 mg/kg”) (n=8), each receiving 20 mg/kg Compound 4 subcutaneously per day starting at P21. From the age of P30, body weight and body temperature was measured daily. At the age of P30 and P40 animals were made to perform a forced exercise on an inclining treadmill for up to 15 minutes or reaching exhaustion whichever happened first. Retro-orbital blood collection (for plasma) was performed after each exercise session for L-Lactic acid level analysis using an enzymatic reaction (biochemical) method with colorimetric read out. The mice were sacrificed and necropsied at P45 or upon reaching a humane endpoint as determined by body conditioning and neurological scoring method developed by Jackson Laboratory for this animal model. Terminal plasma was collected via cardiocentesis post-euthanasia for mitokine analysis (GDF-15 and FGF-21) using an ELISA kit (Abcam: ab216947, ab212160). The manufacturer protocol was followed to generate a standard curve. Plasma was diluted 1:5 in phosphate buffered saline for the ELISA.
Statistical analysis. Kaplan Meier plot followed by chi squared test & two-way ANOVA followed by Dunnett's multiple comparisons test were performed using GraphPad Prism version 10.0.0, GraphPad Software (Boston, Massachusetts) (www.graphpad.com).

[4] = male, C57BL/6, mouse, in vivo, sc, 60 mg/kg
[5] = 20 mg/kg SC daily, terminal plasma, FIG. 24C

Structure (SMILES)	uptake to plasma and clearance rate, mouse versus rat ([1]; 20 mg/kg SC mouse vs 10 mg/kg SC rat (60 mg/m^2), 30 minutes to 24 hours, FIG. 17)	tolerability ([1]; rat, 10 mg/kg SC, 5 daily doses)	time to steady-state ([2]; male, C57BL/6, mouse, in vivo, sc)	AUClast/Dose [2, 4]	Cmax/Dose [2, 4]	AUClast/Dose ([2]; male, C57BL/6, mouse, in vivo, sc, 180 mg/kg)	C24/Dose ([2]; male, C57BL/6, mouse, in vivo, sc, 180 mg/kg, 24 h)	concentrations in heart versus brain ([2]; mouse tissue after 5 days)	C24 (trough) tissue exposure versus dose ([2]; mouse, in vivo)	survival proportion ([3]; 20 mg/kg SC daily from P21 until P46, vs vehicle, FIG. 24A)	exercise-induced lactic acidosis (plasma lactate) ([3]; 20 mg/kg SC daily, forced exercise at P30 and P40, FIG. 24B)	plasma FGF-21 [3, 5]	plasma GDF-15 [3, 5]
CC1=C(C)C(=O)C(CC[C@@](C)(O)COCCC[Si](C)(C)C)=C(C)C1=O [Compound 3]	roughly equivalent	well tolerated											
CC1=C(C)C(=O)C(CC[C@](C)(O)CCCCCCCCC(F)(F)F)=C(C)C1=O [Compound 4]			≤ 5 days	257 kg·ng·h/mL/mg	24.0 kg·ng/mL/mg	273 kg·ng·h/mL/mg	1.48 kg·ng/mL/mg	Similar	approximately proportional to dose	improved survival proportion	mitigated exercise-induced lactic acidosis	normalizing trends	significantly normalized
